Measurements as given in patent US7429460B2, “Methods of screening for inhibitors of phospholipid synthesis related to glycolipid-storage diseases” (Yeda Research and Development Co., Ltd., priority 2003, dated 2008).

Key:
[1] = system: CTP:phosphocholine cytidylyltransferase (CCT); assay: CCT assay in homogenates of treated hippocampal neurons; type: cell-based, rat; settings: neurons incubated with 500 μM CBE for 4- or 8-days
Experimental: (§1) Neurons from individual cover slips were washed twice with ice-cold phosphate-buffered saline, and cells removed by scraping into 300 μl of buffer containing 50 mM imidazole, 2 mM EDTA, 150 mM KCl, 6 mM ADP, 0.2 mM phenylmethylsulfonylfluoride, 1 μg/ml pepstatin and 1 μg/ml leupeptin. After brief sonication, an aliquot was removed for DNA determination and 100 μl was used for the CCT assay.
CCT was assayed as described (Weinhold P A and Feldman D A. 1992. Choline-phosphate cytidylyltransferase. Methods Enzymol. 209, 248-258), with some minor modifications. The assay was performed in a final volume of 200 μl containing 1.6 mM phosphorylcholine/0.25 μCi [^14C]methyl phosphorylcholine, 3 mM CTP, 12 mM magnesium acetate, and DOPC liposomes with or without oleic acid and GicCer or GalCer, as indicated in the figure legends. Liposomes were prepared by sonicating resuspended lipids in the assay buffer at room temperature for 3 min using a sonicator (Sonics & Materials Inc., Newtown, Conn.) fitted with a micro-tip probe set to 750 W output, using 25% of the maximal amplitude and with pulsations of 9.0 sec every 9.2 sec, which gave a translucent liposome preparation with no precipitates. The final concentration of DOPC and oleic acid in the liposomes was 500 μM each. […]

human macrophages = assay: PC synthesis in macrophage cultures; type: cell-based; settings: 500 μM CBE for 6 days
Experimental: Human macrophages were obtained from healthy donors. Blood samples were immediately diluted 2.5 times with PBS pH 7.4 and layered on 3 ml Ficoll Histopaque 1.077 in conical tubes. The tubes were then centrifuged at 400 g for 25 min. The peripheral blood mononuclear leukocyte (PBL) band at the PBS-plasma/Ficoll interface was taken for further analyses. PBL were washed twice with PBS pH 7.4, and resuspended in 5 ml of RPMI 1640 containing 10% fetal calf serum. An aliquot of the cell suspension was used to assess cell viability using the exclusion trypan-blue test. The cell suspension was adjusted to a final concentration of 6*10^6 cells/ml and incubated for 3 hours at 37° C. in a plastic Petri dish (Falcon). Non adherent cell suspension (mononuclear leukocytes) was then transferred to a culture flask while the adherent cells (mainly macrophages) were cultured separately in RPMI 1640 supplemented with 10% fetal calf serum, 2 mM L-glutamine, 100 U/ml penicillin and 0.1 mg/ml streptomycin. The cells were cultured in separate cultures with or without 500 μM CBE for 5 days; on day 5, PMA was added to the macrophage suspension (final concentration: 10 ng/ml) to allow full differentiation. […] The cells were thoroughly washed with non-radioactive medium and lipids were further extracted and analyzed as described herein above. […]

[2] = system: CTP:phosphocholine cytidylyltransferase (CCT); assay: CCT assay in hippocampal neuron homogenates with substance added to the assay mixture; type: biochemical, rat; settings: added directly to the assay mixture
Experimental: as §1
CCT was assayed as described (Weinhold P A and Feldman D A. 1992. Choline-phosphate cytidylyltransferase. Methods Enzymol. 209, 248-258), with some minor modifications. The assay was performed in a final volume of 200 μl containing 1.6 mM phosphorylcholine/0.25 μCi [^14C]methyl phosphorylcholine, 3 mM CTP, 12 mM magnesium acetate, and DOPC liposomes with or without oleic acid and GicCer or GalCer, as indicated in the figure legends. Liposomes were prepared by sonicating resuspended lipids in the assay buffer at room temperature for 3 min using a sonicator (Sonics & Materials Inc., Newtown, Conn.) fitted with a micro-tip probe set to 750 W output, using 25% of the maximal amplitude and with pulsations of 9.0 sec every 9.2 sec, which gave a translucent liposome preparation with no precipitates. The final concentration of DOPC and oleic acid in the liposomes was 500 μM each. The reaction was terminated after 25 min at 37° C. by addition of 200 μl of 150 mM phosphorylcholine in 10% trichloroacetic acid. CDP-choline was recovered by addition of 2 ml of 6% charcoal in water (w/v). After 30 min at room temperature the charcoal suspension was washed 4 times with water and centrifuged at 1,000 gav for 10 min. The aqueous supernatants were removed and CDP-choline was eluted from the charcoal with 3 washes of water/ethanol/28% NH4OH (116:188:11, v/v/v). Eluates were pooled and evaporated to dryness under N2. Phosphorylcholine and CDP-choline were added to the tubes and the samples separated by TLC using 0.9% NaCl/methanol/28% NE4OH (50:70:5, v/v/v) as the developing solvent. Metabolites were identified by iodine, and the CDP-choline spot was scraped into scintillation vials for scintillation counting.
CCT activity was assayed in homogenates prepared from 8-day-old normal rat hippocampal neurons as described herein above. The reaction mixture comprised 0.5 mM DOPC/0.5 mM oleic acid/0.3 mM sphingolipid or lyso-sphingolipid. CCT activity with each sphingolipid or lyso-sphingolipid was measured twice. Basal CCT activity differed by ˜20% between the two experiments; however, the extent of activation or inhibition of CT activity was similar for each sphingolipid and lyso-sphingolipid.

elevation of CCT activity [1]: 2-3 fold
effect on CCT activity when added directly to the assay mixture [2]: had no effect
SMILES: O[C@H]1[C@H](O)[C@@H](O)[C@@H]2O[C@@H]2[C@@H]1O (racemic) [CBE, conduritol-B-epoxide]
[14C]-PC in treated macrophages (human macrophages): dramatic increase
